Read-outs that look alike come from different tables or passages of the source.
What was measured:
Assay in all cases: Kinase selectivity, P33-radiolabeled assay
Format in all cases: biochemical
Conditions in all cases: 10 μM ATP
LATS1 = molecular target: T1, LATS1 (Homo sapiens, UniProt O95835)
T1 construct: purchased Reaction Biology Corp
T1 sequence (O95835 1-1130): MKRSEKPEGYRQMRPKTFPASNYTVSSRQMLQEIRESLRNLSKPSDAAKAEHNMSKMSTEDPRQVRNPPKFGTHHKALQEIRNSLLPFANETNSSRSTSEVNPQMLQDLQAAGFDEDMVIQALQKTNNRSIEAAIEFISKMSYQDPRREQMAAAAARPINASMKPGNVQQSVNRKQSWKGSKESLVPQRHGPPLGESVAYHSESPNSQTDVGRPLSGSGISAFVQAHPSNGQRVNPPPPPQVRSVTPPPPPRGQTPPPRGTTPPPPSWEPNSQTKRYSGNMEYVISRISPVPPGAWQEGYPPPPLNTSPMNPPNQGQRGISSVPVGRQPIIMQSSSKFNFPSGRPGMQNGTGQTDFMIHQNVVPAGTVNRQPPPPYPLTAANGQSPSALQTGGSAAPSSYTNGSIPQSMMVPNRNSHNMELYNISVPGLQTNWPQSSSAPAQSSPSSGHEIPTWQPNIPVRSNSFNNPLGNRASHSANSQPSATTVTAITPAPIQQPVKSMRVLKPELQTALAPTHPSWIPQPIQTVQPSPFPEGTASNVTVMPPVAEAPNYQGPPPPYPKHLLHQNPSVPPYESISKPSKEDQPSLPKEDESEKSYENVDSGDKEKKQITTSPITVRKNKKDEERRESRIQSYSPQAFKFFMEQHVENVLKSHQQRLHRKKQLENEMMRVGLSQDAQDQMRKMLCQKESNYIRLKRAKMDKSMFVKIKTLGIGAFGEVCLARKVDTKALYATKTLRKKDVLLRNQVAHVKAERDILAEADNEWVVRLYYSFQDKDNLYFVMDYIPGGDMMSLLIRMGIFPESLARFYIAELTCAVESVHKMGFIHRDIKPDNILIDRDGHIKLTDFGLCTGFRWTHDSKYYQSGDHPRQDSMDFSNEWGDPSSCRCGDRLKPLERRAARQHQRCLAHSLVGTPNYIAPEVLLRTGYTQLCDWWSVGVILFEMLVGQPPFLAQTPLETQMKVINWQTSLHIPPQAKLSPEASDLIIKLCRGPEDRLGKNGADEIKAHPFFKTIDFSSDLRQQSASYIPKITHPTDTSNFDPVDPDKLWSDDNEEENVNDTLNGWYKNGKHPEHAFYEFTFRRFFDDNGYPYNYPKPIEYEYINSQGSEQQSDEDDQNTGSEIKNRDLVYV
Outline: (§1)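 Reactions contained 10 μM ATP and 10 μM test compound, each run in duplicate. Kinase activity is expressed as a percentage of DMSO-treated controls.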

TYRO3/SKY = molecular target: T2, TYRO3/SKY (Homo sapiens, UniProt Q06418)
T2 construct: purchased Reaction Biology Corp
T2 sequence (Q06418 41-890): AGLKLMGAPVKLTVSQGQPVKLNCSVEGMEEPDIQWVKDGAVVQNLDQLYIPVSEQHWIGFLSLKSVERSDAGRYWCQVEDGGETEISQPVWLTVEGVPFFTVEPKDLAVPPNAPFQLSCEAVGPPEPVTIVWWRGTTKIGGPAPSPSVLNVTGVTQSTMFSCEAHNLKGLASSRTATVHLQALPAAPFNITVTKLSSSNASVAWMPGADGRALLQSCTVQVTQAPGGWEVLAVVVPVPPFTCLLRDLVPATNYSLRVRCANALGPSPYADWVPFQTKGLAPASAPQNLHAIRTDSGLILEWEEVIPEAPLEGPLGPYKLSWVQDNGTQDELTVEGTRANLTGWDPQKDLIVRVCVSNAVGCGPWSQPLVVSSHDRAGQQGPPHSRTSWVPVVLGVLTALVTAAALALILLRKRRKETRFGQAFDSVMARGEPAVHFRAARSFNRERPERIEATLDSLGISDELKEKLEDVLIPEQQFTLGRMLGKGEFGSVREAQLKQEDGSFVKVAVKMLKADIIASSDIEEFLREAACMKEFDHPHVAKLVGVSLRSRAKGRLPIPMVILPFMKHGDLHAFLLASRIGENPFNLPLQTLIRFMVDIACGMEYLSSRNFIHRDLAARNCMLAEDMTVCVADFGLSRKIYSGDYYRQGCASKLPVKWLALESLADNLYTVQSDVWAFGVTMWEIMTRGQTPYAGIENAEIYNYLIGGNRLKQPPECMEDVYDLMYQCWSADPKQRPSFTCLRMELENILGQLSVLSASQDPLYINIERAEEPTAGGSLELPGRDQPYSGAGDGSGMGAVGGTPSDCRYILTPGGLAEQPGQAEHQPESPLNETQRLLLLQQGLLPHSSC
Outline: as §1

EPHA2 = molecular target: T3, EPHA2 (Homo sapiens, UniProt P29317)
T3 construct: purchased Reaction Biology Corp
Outline: as §1

CAMK1g = molecular target: T4, CAMK1g (Homo sapiens, UniProt Q96NX5)
T4 construct: purchased Reaction Biology Corp
Outline: as §1

TAK1 = molecular target: T5, TAK1 (Homo sapiens, UniProt O43318)
T5 construct: purchased Reaction Biology Corp
T5 sequence (O43318 1-303 limits assumed): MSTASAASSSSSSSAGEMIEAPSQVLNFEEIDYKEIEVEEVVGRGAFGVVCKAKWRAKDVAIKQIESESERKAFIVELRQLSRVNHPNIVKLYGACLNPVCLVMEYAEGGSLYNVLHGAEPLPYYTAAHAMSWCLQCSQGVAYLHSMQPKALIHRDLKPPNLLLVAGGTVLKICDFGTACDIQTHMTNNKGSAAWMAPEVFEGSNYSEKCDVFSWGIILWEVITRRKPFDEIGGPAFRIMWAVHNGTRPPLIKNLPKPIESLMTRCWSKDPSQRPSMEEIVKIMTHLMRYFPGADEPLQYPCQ
T5 sequence (Q15750 437-504 partner limits assumed): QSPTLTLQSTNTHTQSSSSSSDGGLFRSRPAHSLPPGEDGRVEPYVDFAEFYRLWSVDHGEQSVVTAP
Outline: as §1

CSK = molecular target: T6, CSK (Homo sapiens, UniProt P41240)
T6 construct: purchased Reaction Biology Corp
Outline: as §1

PDGFRb = molecular target: T7, PDGFRb (Homo sapiens, UniProt P09619)
T7 construct: purchased Reaction Biology Corp
Outline: as §1

[1] = read-out: % Enzyme Activity (relative to DMSO controls) AVG
[2] = read-out: % Enzyme Activity (relative to DMSO controls) Data 1
[3] = read-out: % Enzyme Activity (relative to DMSO controls) Data 2

T4 sequence (Q96NX5 whole entry): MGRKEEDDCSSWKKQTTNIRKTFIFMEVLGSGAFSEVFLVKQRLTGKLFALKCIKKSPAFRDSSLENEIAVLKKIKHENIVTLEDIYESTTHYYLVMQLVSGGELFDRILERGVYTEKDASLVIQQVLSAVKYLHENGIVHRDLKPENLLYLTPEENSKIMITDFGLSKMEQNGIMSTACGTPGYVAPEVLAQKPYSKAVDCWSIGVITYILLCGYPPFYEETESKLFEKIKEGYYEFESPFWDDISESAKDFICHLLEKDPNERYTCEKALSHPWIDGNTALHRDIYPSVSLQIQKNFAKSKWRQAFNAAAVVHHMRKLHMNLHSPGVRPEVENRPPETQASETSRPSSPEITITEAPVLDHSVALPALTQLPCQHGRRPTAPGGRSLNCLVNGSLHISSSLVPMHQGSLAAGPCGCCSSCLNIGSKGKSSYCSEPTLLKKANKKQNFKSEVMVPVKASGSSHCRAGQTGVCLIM
T3 sequence (P29317 24-976): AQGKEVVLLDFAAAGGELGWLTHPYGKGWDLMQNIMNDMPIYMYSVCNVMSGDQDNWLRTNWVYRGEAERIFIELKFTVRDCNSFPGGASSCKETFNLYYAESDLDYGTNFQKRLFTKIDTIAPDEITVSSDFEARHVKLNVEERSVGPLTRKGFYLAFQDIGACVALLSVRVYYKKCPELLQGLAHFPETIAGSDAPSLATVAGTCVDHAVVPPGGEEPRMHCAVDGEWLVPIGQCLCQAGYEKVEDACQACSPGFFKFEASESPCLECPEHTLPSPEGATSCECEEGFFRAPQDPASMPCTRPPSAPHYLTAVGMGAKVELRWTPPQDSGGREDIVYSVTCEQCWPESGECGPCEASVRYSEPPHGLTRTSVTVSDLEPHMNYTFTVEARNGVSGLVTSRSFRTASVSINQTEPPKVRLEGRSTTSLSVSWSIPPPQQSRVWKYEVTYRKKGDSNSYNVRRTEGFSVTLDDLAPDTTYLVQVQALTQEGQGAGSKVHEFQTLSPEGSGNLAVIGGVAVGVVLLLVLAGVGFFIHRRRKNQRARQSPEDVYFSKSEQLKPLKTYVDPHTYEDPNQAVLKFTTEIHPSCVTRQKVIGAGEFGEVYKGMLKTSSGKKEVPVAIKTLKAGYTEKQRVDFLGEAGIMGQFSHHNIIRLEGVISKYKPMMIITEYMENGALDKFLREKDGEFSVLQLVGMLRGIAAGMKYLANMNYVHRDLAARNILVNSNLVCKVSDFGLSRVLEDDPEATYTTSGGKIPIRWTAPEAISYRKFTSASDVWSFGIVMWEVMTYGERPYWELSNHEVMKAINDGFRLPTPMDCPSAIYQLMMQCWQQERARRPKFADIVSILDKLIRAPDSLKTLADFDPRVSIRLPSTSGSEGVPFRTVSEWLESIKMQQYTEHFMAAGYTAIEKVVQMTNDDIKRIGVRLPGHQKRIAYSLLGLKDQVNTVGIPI
T7 sequence (P09619 33-1106): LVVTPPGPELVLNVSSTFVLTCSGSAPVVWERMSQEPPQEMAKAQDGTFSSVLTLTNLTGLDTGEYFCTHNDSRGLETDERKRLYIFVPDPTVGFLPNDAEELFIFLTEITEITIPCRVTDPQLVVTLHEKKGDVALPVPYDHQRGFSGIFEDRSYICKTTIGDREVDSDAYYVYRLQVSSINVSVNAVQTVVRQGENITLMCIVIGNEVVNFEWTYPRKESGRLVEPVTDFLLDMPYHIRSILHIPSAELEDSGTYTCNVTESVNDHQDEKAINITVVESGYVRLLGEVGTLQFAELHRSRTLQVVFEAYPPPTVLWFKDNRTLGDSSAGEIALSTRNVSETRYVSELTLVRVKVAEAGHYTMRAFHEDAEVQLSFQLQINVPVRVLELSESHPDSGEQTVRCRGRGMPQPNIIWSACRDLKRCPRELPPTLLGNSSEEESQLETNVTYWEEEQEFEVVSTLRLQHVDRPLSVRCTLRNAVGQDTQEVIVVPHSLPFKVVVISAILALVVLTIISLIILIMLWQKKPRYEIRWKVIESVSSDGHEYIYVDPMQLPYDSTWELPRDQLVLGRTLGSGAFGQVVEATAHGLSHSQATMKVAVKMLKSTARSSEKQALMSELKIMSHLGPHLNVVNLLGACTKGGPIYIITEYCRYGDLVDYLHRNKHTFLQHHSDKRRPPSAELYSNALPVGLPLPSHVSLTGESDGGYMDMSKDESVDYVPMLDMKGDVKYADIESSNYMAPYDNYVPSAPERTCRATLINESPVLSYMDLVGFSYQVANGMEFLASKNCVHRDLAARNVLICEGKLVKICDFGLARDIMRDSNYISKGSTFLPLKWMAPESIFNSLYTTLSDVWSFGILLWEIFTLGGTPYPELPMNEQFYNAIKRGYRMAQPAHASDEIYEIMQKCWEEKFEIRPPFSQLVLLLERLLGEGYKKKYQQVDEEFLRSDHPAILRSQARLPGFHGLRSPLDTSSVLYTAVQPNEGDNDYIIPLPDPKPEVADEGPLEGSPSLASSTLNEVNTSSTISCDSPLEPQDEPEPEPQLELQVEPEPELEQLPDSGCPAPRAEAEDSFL
T6 sequence (P41240 whole entry): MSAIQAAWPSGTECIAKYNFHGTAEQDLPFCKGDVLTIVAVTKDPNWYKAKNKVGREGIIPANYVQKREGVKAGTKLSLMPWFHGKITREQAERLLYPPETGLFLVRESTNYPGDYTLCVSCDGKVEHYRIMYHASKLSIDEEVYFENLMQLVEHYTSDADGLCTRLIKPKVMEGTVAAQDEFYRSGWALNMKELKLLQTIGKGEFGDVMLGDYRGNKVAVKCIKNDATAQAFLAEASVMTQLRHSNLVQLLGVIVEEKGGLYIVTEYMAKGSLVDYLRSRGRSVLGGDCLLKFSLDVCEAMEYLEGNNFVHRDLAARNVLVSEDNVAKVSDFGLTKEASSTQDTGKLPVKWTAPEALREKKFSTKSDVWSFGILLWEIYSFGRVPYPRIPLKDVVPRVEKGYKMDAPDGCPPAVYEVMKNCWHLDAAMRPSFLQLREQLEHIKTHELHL

CC(C)(C)C(=O)N1N=CC[C@H]1c1ccccc1 [GSK′963]
remaining activity at 10 µM (LATS1; [1]): 103%
remaining activity at 10 µM (LATS1; [2]): 103%
remaining activity at 10 µM (LATS1; [3]): 102%
remaining activity at 10 µM (TYRO3/SKY; [1]): 97.2%
remaining activity at 10 µM (TYRO3/SKY; [2]): 97.1%
remaining activity at 10 µM (TYRO3/SKY; [3]): 97.3%
remaining activity at 10 µM (EPHA2; [1]): 96.3%
remaining activity at 10 µM (EPHA2; [2]): 95.6%
remaining activity at 10 µM (EPHA2; [3]): 97%
remaining activity at 10 µM (CAMK1g; [1]): 82.4%
remaining activity at 10 µM (CAMK1g; [2]): 81.8%
remaining activity at 10 µM (CAMK1g; [3]): 83%
remaining activity at 10 µM (TAK1; [1]): 98.8%
remaining activity at 10 µM (TAK1; [2]): 99.7%
remaining activity at 10 µM (TAK1; [3]): 97.9%
remaining activity at 10 µM (CSK; [1]): 104%
remaining activity at 10 µM (CSK; [2]): 104%
remaining activity at 10 µM (CSK; [3]): 103%
remaining activity at 10 µM (PDGFRb; [1]): 104%
remaining activity at 10 µM (PDGFRb; [2]): 101%
remaining activity at 10 µM (PDGFRb; [3]): 107%

— article PMC4979471 (Cell Death Discovery, 2015)
